Results published in patent publication US20030186434A1, “Method of forming vertebrate pancreas in vitro” (priority 2002, published 2003).

What was measured:
[1] = test system: blastopore upper lip of early gastrula of a Xenopus; test: Timing of retinoic acid treatment: preculture of blastopore upper lip before one hour treatment; format: cell-based; settings: 10^−4 M, treated 1 hour, cultured 10 days
Protocol: Regarding the other tissues, an intestinal epithelium was formed aside from notochord and mesenchyme in those precultured for 0 and 5 hours. However, as to those treated with retinoic acid after preculture for more than 15 hours, the formation of intestinal epithelium was suppressed and the differentiation rate of epithelium, coelomic epithelium and pharyngeal epithelium increased.

[2] = test system: blastopore upper lip of early gastrula of a Xenopus; test: Tissue differentiation of blastopore upper lip treated with retinoic acid for three hours, light microscopy; settings: treated 3 hours, cultured 10 days
[3] = preculture 0 hours, 34 specimens
[4] = preculture 5 hours, 36 specimens
[5] = preculture 15 hours, 40 specimens
[6] = preculture 25 hours, 34 specimens

CC1=C(/C=C/C(C)=C/C=C/C(C)=C/C(=O)O)C(C)(C)CCC1 [Retinoic acid, retinoic acid]
Atypical epidermis differentiated, specimens (%) [1, 3]: 0 (0)
Cartilage differentiated, specimens (%) [1, 3]: 0 (0)
Cement gland differentiated, specimens (%) [1, 3]: 0 (0)
Coelomic epithelium differentiated, specimens (%) [1, 3]: 0 (0)
Ear vesicle differentiated, specimens (%) [1, 3]: 0 (0)
Epidermis differentiated, specimens (%) [1, 3]: 11 (32)
Eye or its fragments differentiated, specimens (%) [1, 3]: 0 (0)
Gastric gland differentiated, specimens (%) [1, 3]: 0 (0)
Hemocyte differentiated, specimens (%) [1, 3]: 0 (0)
Intestinal epithelium differentiated, specimens (%) [1, 3]: 34 (100)
Mesenchyme differentiated, specimens (%) [1, 3]: 23 (68)
Muscle differentiated, specimens (%) [1, 3]: 1 (3)
Neural tissue differentiated, specimens (%) [1, 3]: 0 (0)
Notochord differentiated, specimens (%) [1, 3]: 33 (97)
Pancreas differentiated, specimens (%) [1, 3]: 24 (71)
Pharyngeal epithelium differentiated, specimens (%) [1, 3]: 25 (74)
Pronephros differentiated, specimens (%) [1, 3]: 0 (0)
Yolk-rich cell differentiated, specimens (%) [1, 3]: 32 (94)
Atypical epidermis differentiated, specimens (%) [1, 4]: 0 (0)
Cartilage differentiated, specimens (%) [1, 4]: 0 (0)
Cement gland differentiated, specimens (%) [1, 4]: 0 (0)
Coelomic epithelium differentiated, specimens (%) [1, 4]: 0 (0)
Ear vesicle differentiated, specimens (%) [1, 4]: 0 (0)
Epidermis differentiated, specimens (%) [1, 4]: 5 (14)
Eye or its fragments differentiated, specimens (%) [1, 4]: 0 (0)
Gastric gland differentiated, specimens (%) [1, 4]: 0 (0)
Hemocyte differentiated, specimens (%) [1, 4]: 0 (0)
Intestinal epithelium differentiated, specimens (%) [1, 4]: 33 (92)
Mesenchyme differentiated, specimens (%) [1, 4]: 30 (83)
Muscle differentiated, specimens (%) [1, 4]: 0 (0)
Neural tissue differentiated, specimens (%) [1, 4]: 0 (0)
Notochord differentiated, specimens (%) [1, 4]: 36 (100)
Pancreas differentiated, specimens (%) [1, 4]: 19 (53)
Pharyngeal epithelium differentiated, specimens (%) [1, 4]: 27 (75)
Pronephros differentiated, specimens (%) [1, 4]: 0 (0)
Yolk-rich cell differentiated, specimens (%) [1, 4]: 30 (83)
Atypical epidermis differentiated, specimens (%) [1, 5]: 0 (0)
Cartilage differentiated, specimens (%) [1, 5]: 0 (0)
Cement gland differentiated, specimens (%) [1, 5]: 0 (0)
Ear vesicle differentiated, specimens (%) [1, 5]: 0 (0)
Epidermis differentiated, specimens (%) [1, 5]: 13 (33)
Eye or its fragments differentiated, specimens (%) [1, 5]: 0 (0)
Hemocyte differentiated, specimens (%) [1, 5]: 0 (0)
Mesenchyme differentiated, specimens (%) [1, 5]: 40 (95)
Muscle differentiated, specimens (%) [1, 5]: 0 (0)
Neural tissue differentiated, specimens (%) [1, 5]: 0 (0)
Pronephros differentiated, specimens (%) [1, 5]: 0 (0)
Atypical epidermis differentiated, specimens (%) [1, 6]: 0 (0)
Cartilage differentiated, specimens (%) [1, 6]: 0 (0)
Cement gland differentiated, specimens (%) [1, 6]: 0 (0)
Coelomic epithelium differentiated, specimens (%) [1, 6]: 16 (47)
Ear vesicle differentiated, specimens (%) [1, 6]: 0 (0)
Epidermis differentiated, specimens (%) [1, 6]: 28 (82)
Eye or its fragments differentiated, specimens (%) [1, 6]: 0 (0)
Gastric gland differentiated, specimens (%) [1, 6]: 0 (0)
Hemocyte differentiated, specimens (%) [1, 6]: 0 (0)
Intestinal epithelium differentiated, specimens (%) [1, 6]: 5 (15)
Mesenchyme differentiated, specimens (%) [1, 6]: 34 (100)
Muscle differentiated, specimens (%) [1, 6]: 1 (3)
Neural tissue differentiated, specimens (%) [1, 6]: 0 (0)
Notochord differentiated, specimens (%) [1, 6]: 33 (97)
Pancreas differentiated, specimens (%) [1, 6]: 0 (0)
Pharyngeal epithelium differentiated, specimens (%) [1, 6]: 34 (100)
Pronephros differentiated, specimens (%) [1, 6]: 0 (0)
Yolk-rich cell differentiated, specimens (%) [1, 6]: 20 (59)
Atypical epidermis differentiated, specimens (%) ([2]; 10^−3 M, 12 specimens): 0 (0)
Cartilage differentiated, specimens (%) ([2]; 10^−3 M, 12 specimens): 0 (0)
Cement gland differentiated, specimens (%) ([2]; 10^−3 M, 12 specimens): 0 (0)
Coelomic epithelium differentiated, specimens (%) ([2]; 10^−3 M, 12 specimens): 6 (50)
Ear vesicle differentiated, specimens (%) ([2]; 10^−3 M, 12 specimens): 0 (0)
Epidermis differentiated, specimens (%) ([2]; 10^−3 M, 12 specimens): 10 (83)
Eye or its fragments differentiated, specimens (%) ([2]; 10^−3 M, 12 specimens): 0 (0)
Gastric gland differentiated, specimens (%) ([2]; 10^−3 M, 12 specimens): 0 (0)
Hemocyte differentiated, specimens (%) ([2]; 10^−3 M, 12 specimens): 0 (0)
Intestinal epithelium differentiated, specimens (%) ([2]; 10^−3 M, 12 specimens): 12 (100)
Mesenchyme differentiated, specimens (%) ([2]; 10^−3 M, 12 specimens): 12 (100)
Muscle differentiated, specimens (%) ([2]; 10^−3 M, 12 specimens): 0 (0)
Neural tissue differentiated, specimens (%) ([2]; 10^−3 M, 12 specimens): 0 (0)
Notochord differentiated, specimens (%) ([2]; 10^−3 M, 12 specimens): 11 (92)
Pancreas differentiated, specimens (%) ([2]; 10^−3 M, 12 specimens): 11 (92)
Pharyngeal epithelium differentiated, specimens (%) ([2]; 10^−3 M, 12 specimens): 10 (83)
Pronephros differentiated, specimens (%) ([2]; 10^−3 M, 12 specimens): 0 (0)
Yolk-rich cell differentiated, specimens (%) ([2]; 10^−3 M, 12 specimens): 11 (92)
Atypical epidermis differentiated, specimens (%) ([2]; 10^−4 M, 35 specimens): 0 (0)
Cartilage differentiated, specimens (%) ([2]; 10^−4 M, 35 specimens): 0 (0)
Cement gland differentiated, specimens (%) ([2]; 10^−4 M, 35 specimens): 0 (0)
